The text below walks through data of article PMC6278658, “Two New Altenusin/Thiazole Hybrids and a New Benzothiazole Derivative from the Marine Sponge-Derived Fungus Alternaria sp. SCSIOS02F49” (Molecules, 2018).

One may read the IC50 as the concentration needed to halve the response being measured.

Structures are written as SMILES.

Experiment [1] in a line: DPPH radical scavenging activity. The conditions noted are these: for IC50: DPPH 0.1 mM in ethanol, 30 min at room temperature in the dark, absorbance at 517 nm, triplicates, read-out: DPPH Free Radical Scavenging Activity (IC50); for DPPH free-radical-scavenging activity compared with BHT: comparison with positive control BHT. The protocol: The DPPH (2,2-diphenyl-1-picrylhydrazyl) radical scavenging ability of the sample was conducted based on the method described by Kumagai et al. with minor modifications. The reaction mixture was with DPPH (0.1 mM, dissolved in ethanol) and various concentrations of sample in equal volumes, which was incubated at room temperature for 30 min in the dark. The absorbance of the mixture was measured at 517 nm using UV (UV-2600, UNICO Instrument Co. Ltd., Shanghai, China). The final concentrations of each compound in the wells were confined as 1000, 333, 111, 37.0, 12.3, 4.11, 1.37, and 0.46 μM. The ethanol and butylated hydroxytoluene (BHT), instead of samples, were used for a blank and positive control, respectively. Each assay was carried out in triplicates. IC50, the concentration of elimination of 50% DPPH radical scavenging activity, was measured by non-liner regression.
(In general: The DPPH test is a chemical assay of radical scavenging.)

Experiment [2] has as its target T1, Human recombinant COX-2 enzyme (Homo sapiens, UniProt P35354).
T1 construct: purchased Cayman #700100
T1 sequence (P35354 18-604): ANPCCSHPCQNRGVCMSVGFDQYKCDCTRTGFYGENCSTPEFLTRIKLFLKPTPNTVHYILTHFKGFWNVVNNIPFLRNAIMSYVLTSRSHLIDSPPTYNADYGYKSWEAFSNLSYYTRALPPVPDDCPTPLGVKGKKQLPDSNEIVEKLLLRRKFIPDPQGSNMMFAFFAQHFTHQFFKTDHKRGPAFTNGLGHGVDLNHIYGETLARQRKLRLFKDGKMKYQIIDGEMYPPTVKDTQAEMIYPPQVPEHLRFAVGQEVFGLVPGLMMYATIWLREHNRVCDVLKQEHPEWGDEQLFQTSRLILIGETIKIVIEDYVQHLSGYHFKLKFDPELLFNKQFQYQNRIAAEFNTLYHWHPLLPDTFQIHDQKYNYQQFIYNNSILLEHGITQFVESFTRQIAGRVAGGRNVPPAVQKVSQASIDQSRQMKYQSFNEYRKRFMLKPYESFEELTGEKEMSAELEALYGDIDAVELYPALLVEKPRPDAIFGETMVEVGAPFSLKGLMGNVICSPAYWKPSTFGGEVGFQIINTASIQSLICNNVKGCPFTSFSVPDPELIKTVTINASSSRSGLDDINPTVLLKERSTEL
Put plainly: COX-2 inhibitory activity assay (Cayman COX Fluorescent Inhibitor Screening Assay Kit). It counts as biochemical. The note with it: 15 min pre-incubation, arachidonic acid substrate, fluorescence 530/595 nm, triplicates. The protocol: The COX-2 inhibitory activity assay of sample was conducted according to a previously reported method. […] Human recombinant COX-2 enzyme was pre-incubated with inhibitors for 15 min at normal temperature, followed by the addition of heme and fluorometric substrate and incubation for another 15 min at normal temperature. The reaction was started by the addition of arachidonic acid and allowed to proceed for 2 min. […] Each assay was carried out in triplicates. IC50, was measured by non-liner regression.

Details of experiment [3]: method as in PMID 22061662. The note with it: previous study; cited from earlier work.

`Cc1cc(C(C)(C)C)c(O)c(C(C)(C)C)c1` [BHT, butylated hydroxytoluene, reference compound]: the IC50 in experiment [1] was 170.3 ± 0.06 µM.

As for `COc1cc(O)c(C(=O)O)c(-c2c(C)cc(O)c3ncsc23)c1` [Compound 1, Altenusinoides A], the IC50 is greater than 1000 µM in experiment [1] and greater than 30 µM in experiment [2].

`COc1cc(O)c(C(=O)O)c(-c2cc(O)c3ncsc3c2C)c1` [Compound 2, altenusinoides B]: the IC50 was greater than 1000 µM in experiment [1] and greater than 30 µM in experiment [2].

For `COC(=O)Cc1cc(O)cc2scnc12` [Compound 3, methyl 2-(6-hydroxybenzothiazol-4-yl) acetate], the results for the IC50 in experiment [1] and in experiment [2] were greater than 1000 µM and greater than 30 µM, respectively.

For `COc1cc(O)c(C(=O)O)c(-c2cc(O)c(O)cc2C)c1` [Compound 4, Altenusin], in experiment [1], the IC50 turned out to be 10.7 ± 0.09 µM and the “DPPH free-radical-scavenging activity compared with BHT” value was “higher DPPH free-radical-scavenging activities than BHT”. The IC50 in experiment [2] was greater than 30 µM. In addition, the “radical scavenging activity in comparison with vitamin C” value in experiment [3] is given as “strong radical scavenging activity”.

Turning to `COc1cc(O)cc(-c2cc(O)c(O)cc2C)c1` [Compound 5, 5′-methoxy-6-methyl-biphenyl-3,4,3′-triol], in experiment [1], the IC50 is 100.6 ± 0.025 µM and the “DPPH free-radical-scavenging activity compared with BHT” value is “higher DPPH free-radical-scavenging activities than BHT”. In addition, the IC50 in experiment [2] was 9.5 ± 0.08 µM. Moreover, in experiment [3], the “radical scavenging activity in comparison with vitamin C” value is recorded as “strong radical scavenging activity”.

In the case of `COc1cc(O)cc(C2=C(C)C[C@H](O)C2=O)c1` [Compound 6, (S)-alternariphent A1], the values for the IC50 in experiment [1] and in experiment [2] were greater than 1000 µM and greater than 30 µM, respectively.
